Like-named read-outs stand apart in the source and are kept apart here.
Tests used:
[1] = molecular target: T1, adenosine A2 receptor (Rattus norvegicus, UniProt P30543); assay: A2 receptor affinity: displacement of [3H]NECA binding in rat brain striatum membranes; conditions: Table 1
T1 construct: tissue Charles River (animals); host or cells: striatal membranes of young male rats (C-D strain)
Protocol: See R. R. Bruns, et al., Characterization of the A-2Adenosine Receptor Labeled by [3H]NECA in Rat Striatal Membranes, Mol. Pharmacol., 29, 331-346 (1986). Young male rats (C-D strain), obtained from Charles River, were killed by decapitation and the brain was removed. Membranes for ligand binding were isolated from rat brain striatum. The tissue was homogenized in 20 vol ice-cold 50 mM Tris-HC1 buffer (pH 7.7) using a polytron (setting for 6 to 20 seconds). The homogenate was centrifuged at 50,000×g for 10 minutes at 4° C. The pellet was again homogenized in a polytron in 20 vol of buffer, and centrifuged as before. The pellet was finally resuspended in 40 vol of 50 mM Tris-HC1 (pH 7.7) per gram of original wet weight of tissue.
Incubations were carried out at 25° C. for 60 minutes. Each tube was filtered through GF/B glass fiber filters using a vacuum. The filters were rinsed two times with 5 ml of the ice-cold buffer. […] The filters were counted by liquid scintillation spectrometry.
Specific binding of [^3 H]NECA was measured as the excess over blanks run in the presence of 100 μM 2-chloroadenosine. Total membrane-bound radioactivity was about 2.5% of that added to the test tubes. […] Specific binding to membranes was about 50% of the total bound.

[2] = molecular target: T2, adenosine A1 receptor (Rattus norvegicus, UniProt P25099)
T2 sequence (P25099 1-326): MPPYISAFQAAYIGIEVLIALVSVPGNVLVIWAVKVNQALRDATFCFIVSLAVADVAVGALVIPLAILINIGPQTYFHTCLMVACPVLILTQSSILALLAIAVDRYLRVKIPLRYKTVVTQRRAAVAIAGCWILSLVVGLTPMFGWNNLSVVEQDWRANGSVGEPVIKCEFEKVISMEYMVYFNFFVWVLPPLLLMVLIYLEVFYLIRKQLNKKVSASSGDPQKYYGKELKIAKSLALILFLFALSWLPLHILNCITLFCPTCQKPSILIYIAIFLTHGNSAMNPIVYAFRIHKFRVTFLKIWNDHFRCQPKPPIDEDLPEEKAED

[3] = system: hippocampal CA1 neurons; assay: Hippocampal long-term potentiation, in vitro slice (CA1 population spike); assay type: cell-based, male Sprague-Dawley rats; conditions: for LTP stabilized level following tetanus / time course of LTP following tetanus: primed burst tetanus; for population spike before and after induction of LTP: hippocampal CA1 neurons
Protocol: Slices were prepared from male Sprague-Dawley rats. […] Briefly, the hippocampus was rapidly and gently dissected over ice. 400 μ Sections were made with a […] tissue chopper and incubated on the interface of 34° C. […] A recording electrode was placed in the CA1 region of the hippocampus and a stimulating electrode was positioned in the stratum radiatum of the CA3 region of this same slice. […] The signal form the CA1 cell body layer was amplified, filtered (1 Hz-4 KHz), and monitored on an oscilloscope. The evoked waveform was also digitized using a Computerscope A/D board (RC Electronics, Inc., Santa Barbara, Calif.) and stored for analysis using Neuroscope software (Levin and Associates, Denver, Colo.) running on an IBM-AT. In order to insure the viability of the slice, "minimal viability criteria" were established. […] Only preparations that met these three criteria were used. Twenty or more control population spikes were obtained to establish a baseline (at least 10 minutes). In most slices concentrated drug solutions were then diluted into the media for a 20 minute period to establish effects on the baseline population spike. […] One 100 μsec pulse was followed by 4 similar pulses 170, 180, 190, 200 msec later. Drug superfusion was continuous throughout the experiment. […] The compounds were dissolved in DMSO and diluted 1:400 into the perfusion media. […] Each pop spike waveform was digitized, stored, and analyzed by the Neuroscope software. Pop spike amplitude was determined for each waveform and these amplitudes were normalized to pre-tetanus levels. Results were expressed as percent change from this control level and plotted vs. time.

[4] = system: animal models of learning and memory; conditions: G. Schingnitz et al. 1991; cited from earlier work
[5] = system: rats; assay: Water maze learning (scopolamine-induced impairment); assay type: in vivo, rat; conditions: for effect on scopolamine-induced learning impairment: water maze, summary statement; for reversal of scopolamine-induced impairment: scopolamine 1.2 mg/kg
Excerpt: In the water maze spatial learning model, rats are required to use distal spatial cues around a circular water tank to navigate to a hidden platform.
Rats were trained in a 120 -cm diameter water-filled tank to locate a hidden platform submerged just below the surface of the water. The location of the platform remained constant, but for each trial, the animal was required to swim from one of three different starting locations around the edge of the tank. There were no proximal cues in the tank, so the animal had to use a spatial mapping strategy using the distal cues around the room to navigate to the hidden platform. A computerized video tracking system allowed automated acquisition of the data. The animals were given 12 successive training trials during the single training day, using the methods of O. Buresova, et al., Differential Effects Of Cholinergic Blockade On Performance Of Rats In The Water Tank Navigation Task And In A Radial Water Maze, Behavioral Neuroscience, 100, 476-482 (1986). […] After the animal found or was placed on the platform, it was allowed to stay there for 30 seconds. The next trial commenced immediately following the 30 second stay on the platform. Latency to locate the platform was recorded for each trial.
Separate treatment groups of five animals each were run in each experiment. The VEH--VEH groups received vehicle (distilled water plus Tween) i.p. 40 minutes prior to the first trial and vehicle i.p. 20 min. prior to the first trial. The VEH-SCOP groups received vehicle i.p. at 40 minutes and scopolamine HBr i.p. at 20 minutes. The MDL-SCOP groups received (R)-1,3-dipropyl-8-(1-phenylpropyl)-xanthine or 3,7-dihydro-8[(R)-1-methyl-2-phenylethyl]1,3-dipropyl-1H-purine-2,6-dione i.p. at 40 minutes and scopolamine HBr i.p. at 20 minutes.
The latency scores for each animal were averaged into four blocks of three trials each (one trial from each starting location). A one-way ANOVA comparing the treatment groups was computed on the scores for each trial block. If the overall ANOVA was statistically significant, comparisons between individual treatment groups were made with Fisher's PLSD test.

[6] = system: isolated guinea pig trachea; assay: Isolated guinea pig trachea, contraction produced by N6-cyclohexyl-adenosine; assay type: cell-based
[7] = system: Type III phosphodiesterase; assay: Type III phosphodiesterase activity; assay type: biochemical
[8] = system: A1 receptor; assay: A1 receptor mediated decrease in heart rate produced by adenosine in the anesthetized guinea pig; assay type: in vivo
[9] = system: Type IV phosphodiesterase; assay: Type IV phosphodiesterase activity; assay type: biochemical
[10] = molecular target: T2, adenosine A1 receptor; assay: biochemical
[11] = molecular target: T2, adenosine A1 receptor; set-up: Male Sprague-Dawley rats were sacrificed by decapitation and the membranes were isolated from whole animal brains; from tissue; host or cells: whole brain membranes of male Sprague-Dawley rats; conditions: Dudley et al., 1992; Secrest et al.; cited from earlier work
[12] = molecular target: T2, adenosine A1 receptor; assay: A1 receptor affinity: displacement of [3H]cyclohexyladenosine binding in rat brain membranes; conditions: Table 1; ratio of A2 Ki to A1 Ki (selectivity)

T1 sequence (P30543 whole entry): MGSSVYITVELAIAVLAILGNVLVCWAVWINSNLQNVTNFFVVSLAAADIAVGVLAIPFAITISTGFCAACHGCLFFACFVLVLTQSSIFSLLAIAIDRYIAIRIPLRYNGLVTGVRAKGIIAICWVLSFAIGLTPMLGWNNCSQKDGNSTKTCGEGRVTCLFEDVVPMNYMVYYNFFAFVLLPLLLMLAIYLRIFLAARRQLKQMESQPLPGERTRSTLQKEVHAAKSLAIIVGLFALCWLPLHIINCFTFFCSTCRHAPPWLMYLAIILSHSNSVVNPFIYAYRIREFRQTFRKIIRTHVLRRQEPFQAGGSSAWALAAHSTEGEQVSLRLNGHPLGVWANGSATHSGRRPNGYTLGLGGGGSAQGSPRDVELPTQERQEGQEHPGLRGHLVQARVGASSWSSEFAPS

CCCn1c(=O)c2[nH]c(C3Cc4ccccc4C3)nc2n(CCC)c1=O (racemic) [3,7-Dihydro-8-(2-indanyl)-1,3-dipropyl-1H-purine-2,6-dione]
Ki [1]: 8.35 µM

CCCn1c(=O)c2nc(C(C)c3ccccc3)[nH]c2n(CCC)c1=O (racemic) [3,7-dihydro-8-(1-phenylethyl)-1,3-dipropyl-1H-purine-2,6-dione]
Ki [1]: 4.9 µM

CCCn1c(=O)c2nc(C(CC)Cc3ccccc3)[nH]c2n(CCC)c1=O (racemic) [3,7-dihydro-8-[1-(phenylmethyl)propyl]-1,3-dipropyl-1H-purine-2,6-dione]
Ki [1]: 1.23 µM

CCCn1c(=O)c2[nH]c(C(CC)c3ccccc3)nc2n(CCC)c1=O (racemic) [3,7-dihydro-8-[(±)-phenylpropyl]-1,3-dipropyl-1H-purine-2,6-dione]
A2/A1 [2]: 20

CCCn1c(=O)c2nc(C(CO)Cc3ccccc3)[nH]c2n(CCC)c1=O (racemic) [3,7-dihydro-8-[l-(hydroxymethyl)-2-phenylethyl]-1,3-dipropyl-1H-purine-2,6-dione]
Ki [1]: 12.8 µM

CCCn1c(=O)c2[nH]c(C3CCC(=O)C3)nc2n(CCC)c1=O (racemic) [KFM-19, reference compound]
synaptic transmission in the hippocampal slice [3]: enhanced synaptic transmission | activity in other animal models of learning and memory [4]: reported to have activity | effect on scopolamine-induced learning impairment [5]: significantly antagonized

CCCn1c(=O)c2[nH]c([C@H](C)Cc3ccccc3)nc2n(CCC)c1=O [3,7-Dihydro-8-[(R)-1-methyl-2-phenylethyl]-1,3-dipropyl-1H-purine-2,6-dione]
synaptic transmission in the hippocampal slice [3]: enhanced synaptic transmission | LTP stabilized level following tetanus ([3]; 5 μM): 216% | population spike before and after induction of LTP [3]: increased the basal population spike before and after induction of LTP | time course of LTP following tetanus [3]: rose sharply and remained stable throughout the observation period | effect on contraction produced by N6-cyclohexyl-adenosine [6]: very little effect | effect on Type III phosphodiesterase activity [7]: little effect | reversal of A1 receptor mediated decrease in heart rate produced by adenosine [8]: completely reversed | effect on Type IV phosphodiesterase activity [9]: little effect | difference from VEH-VEH group (latency) ([5]; 25 mg/kg i.p. plus scopolamine […]): did not differ significantly from the VEH--VEH group | reversal of scopolamine-induced impairment of water maze learning ([5]; 25 mg/kg i.p., scopolamine […]): partially reversed | effect on scopolamine-induced learning impairment [5]: significantly antagonized

CCCn1c(=O)c2nc([C@H](C)c3ccccc3)[nH]c2n(CCC)c1=O [3,7-Dihydro-8-[(R)-1-phenylethyl]-1,3-dipropyl-1H-purine-2,6-dione]
Ki [1]: 4.22 µM

CCCn1c(=O)c2nc([C@@H](C)c3ccccc3)[nH]c2n(CCC)c1=O [3,7-Dihydro-8-[(S)-1-phenylethyl]-1,3-dipropyl-1H-purine-2,6-dione]
Ki [1]: 12.9 µM

CCCn1c(=O)c2[nH]c([C@@H](CC)c3ccccc3)nc2n(CCC)c1=O [3,7-Dihydro-8-[(S)-1-phenylpropyl]1,3-dipropyl-1H-purine-2,6-dione]
Ki [1]: 0.848 µM | Ki [10]: 0.0607 µM | A2/A1 [2]: 14

CCCn1c(=O)c2[nH]c([C@H](CC)c3ccccc3)nc2n(CCC)c1=O [3,7-dihydro-8-[(R)-1-phenylpropyl]1,3-dipropyl-1H-purine-2,6-dione]
synaptic transmission in the hippocampal slice [3]: enhanced synaptic transmission | LTP stabilized level following tetanus ([3]; 2.5 μm): 270% | population spike before and after induction of LTP [3]: increased the basal population spike before and after induction of LTP | time course of LTP following tetanus [3]: rose sharply and remained stable throughout the observation period | Ki [1]: 3.51 µM | A1 antagonist potency and selectivity [11]: potent and selective A1 antagonists | A2/A1 [12]: 153 | Ki [2]: 0.0232 µM | difference from VEH-SCOP group (latency), block 3 ([5]; 5 mg/kg i.p. plus scopolamine 1.2 mg/kg, p<0.05): differed from the VEH-SCOP group on block 3 (p<0.05) | reversal of scopolamine-induced impairment ([5]; 5 mg/kg i.p.): reversed the scopolamine-induced impairment | difference from VEH-SCOP group (latency), blocks 2 and 3 ([5]; 25 mg/kg i.p. plus scopolamine 1.2 mg/kg): differed from the VEH-SCOP group on blocks 2 and 3 | reversal of scopolamine-induced impairment ([5]; 25 mg/kg i.p.): reversed the scopolamine-induced impairment | difference from VEH-VEH group (latency) ([5]; 5 and 25 mg/kg i.p. plus scopolamine 1.2 mg/kg): did not differ significantly from the VEH--VEH group | effect on scopolamine-induced learning impairment [5]: significantly antagonized

CN1[C@@H]2C[C@@H](OC(=O)[C@H](CO)c3ccccc3)C[C@H]1[C@@H]1O[C@@H]12 [scopolamine, reference compound]
VEH-SCOP group versus VEH-VEH group (latency) ([5]; scopolamine 1.2 mg/kg i.p., p<0.05): differed significantly from the VEH--VEH group (p<0.05) | impairment of acquisition of the water maze task ([5]; scopolamine, dose-dependent): dose-dependently impairs acquisition of the water maze task

— patent US5840729A (priority 1995, dated 1998)
